What was measured:
HSA [1] = target: T1, HSA (Homo sapiens, UniProt P02768); test: previous NMR measurement of the low affinity second binding site for Trp; conditions: 20° C., measured previously by NMR
Text: […]. J., 273, 641-644 (1991)) is somewhat larger. This small difference can probably be ascribed to the presence of a low affinity second binding site for Trp. […] Despite this complication, the values that are rapidly derived from the NMR screening experiments serve for most of the purposes in the early stages of drug discovery.

HSA [2] = target: T1, HSA; conditions: 20° C.; read-out: KD^(a) binding constant of L-Trp measured with equilibrium dialysis; cited from earlier work
HSA (Sudlow site I) = target: T2, HSA (Sudlow site I) (Homo sapiens, UniProt P02768); test: doubly-selective R1-filtered and spin-echo 1H NMR competition binding, spy molecule warfarin; conditions: 25 μM, HSA 0 to 2.5 μM
T2 construct: Fatty acid free human serum albumin (A-3782) was purchased from Sigma and used without further purification; purchased Sigma A-3782
T2 sequence (P02768 25-609): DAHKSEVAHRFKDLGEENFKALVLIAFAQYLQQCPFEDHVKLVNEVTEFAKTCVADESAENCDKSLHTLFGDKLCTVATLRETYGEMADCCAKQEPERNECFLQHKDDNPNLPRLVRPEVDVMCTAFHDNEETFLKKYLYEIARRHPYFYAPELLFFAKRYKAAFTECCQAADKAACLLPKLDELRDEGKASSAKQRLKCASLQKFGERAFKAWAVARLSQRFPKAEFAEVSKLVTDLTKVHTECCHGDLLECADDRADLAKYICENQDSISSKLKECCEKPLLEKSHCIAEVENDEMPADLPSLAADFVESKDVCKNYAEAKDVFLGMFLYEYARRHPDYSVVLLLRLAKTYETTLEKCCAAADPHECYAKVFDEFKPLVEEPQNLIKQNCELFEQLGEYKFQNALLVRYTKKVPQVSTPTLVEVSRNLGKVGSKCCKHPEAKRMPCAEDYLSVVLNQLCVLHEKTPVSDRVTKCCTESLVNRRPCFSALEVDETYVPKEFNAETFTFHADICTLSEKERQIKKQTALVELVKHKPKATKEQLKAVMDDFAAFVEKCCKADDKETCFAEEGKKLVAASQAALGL

HSA [3] = target: T1, HSA; conditions: up to concentration of several hundred μM; cited from earlier work

T1 sequence (P02768 25-609): as above

Compound	affinity for the low affinity second binding site (HSA [1])	Kd (HSA [2]) [µM]	binding of the control molecule to HSA (signal intensity as a function of protein concentration) (HSA (Sudlow site I))	interaction with HSA (HSA [3])
N[C@@H](Cc1c[nH]c2ccccc12)C(=O)O [Trp, tryptophan]	several hundreds	23	–	–
Cc1ccc2[nH]cc(CC(N)C(=O)O)c2c1 (stereo not shown) [5-CH3 D,L Trp (2), 5-CH3 D,L Trp]	–	–	does not bind	does not interact with HSA

Source: patent publication US7470543B2, “Methods for identifying ligands using competitive binding 1H NMR experiments” (Nerviano Medical Sciences S.r.l., priority 2002, dated 2008)
